Experimental data: patent US12539312B2, “Use of materials made of cross-linked β-cyclodextrins for the treatment of tuberculosis” (INSERM (INSTITUT NATIONAL DE LA SANTÉ ET DE LA RECHERCHE …, priority 2019, dated 2026)

Legend:
Mtb H37Rv = assay: Lung mycobacterial load in Mtb-challenged mice (CFU counting); format: in vivo, Mycobacterium tuberculosis; conditions: Booster co-loaded with ETH in pβCD
[1] = Phase solubility study, ETH; conditions: 1:1 stoichiometry assumed, from phase solubility diagram
[2] = Phase solubility study, Booster; conditions: 1:1 stoichiometry assumed; BDM43266 per FIG. 2B
BMDM = assay: Apoptosis/necrosis assay (Annexin V and DNA intercalating dye); format: cell-based, murine; conditions: 24 hours incubation

| SMILES | boosting efficacy on ETH (Mtb H37Rv) | K1:1 (binding constant) in the case of ETH [1] | K1:1 (binding constant) in the case of Booster [2] | Annexin V / DNA intercalating dye staining (BMDM) |
| --- | --- | --- | --- | --- |
| O=C(CCCC(F)(F)F)N1CCC(c2nc(-c3nccs3)no2)CC1 [BDM41906] | No difference was observed concerning the boosting efficacy between BDM41906 and BDM43266 | – | – | – |
| OC[C@H]1O[C@@H]2O[C@H]3[C@H](O)[C@@H](O)[C@@H](O[C@H]4[C@H](O)[C@@H](O)[C@@H](O[C@H]5[C@H](O)[C@@H](O)[C@@H](O[C@H]6[C@H](O)[C@@H](O)[C@@H](O[C@H]7[C@H](O)[C@@H](O)[C@@H](O[C@H]8[C@H](O)[C@@H](O)[C@@H](O[C@H]1[C@H](O)[C@H]2O)O[C@@H]8CO)O[C@@H]7CO)O[C@@H]6CO)O[C@@H]5CO)O[C@@H]4CO)O[C@@H]3CO [βCD, β-Cyclodextrin] | – | 100 | 514 | – |
| CN[C@@H]1C[C@H]2O[C@@](C)([C@@H]1OC)n1c3ccccc3c3c4c(c5c6ccccc6n2c5c31)C(=O)NC4 [staurosporine] | – | – | – | late apoptotic, double positive cells |
| OC[C@H]1O[C@@H]2O[C@H]3[C@H](O)[C@@H](O)[C@@H](O[C@H]4[C@H](O)[C@@H](O)[C@@H](O[C@H]5[C@H](O)[C@@H](O)[C@@H](O[C@H]6[C@H](O)[C@@H](O)[C@@H](O[C@H]7[C@H](O)[C@@H](O)[C@@H](O[C@H]1[C@H](O)[C@H]2O)O[C@@H]7CO)O[C@@H]6CO)O[C@@H]5CO)O[C@@H]4CO)O[C@@H]3CO [αCD, α-cyclodextrin] | – | 24 | 100 | – |
| OC[C@H]1O[C@@H]2O[C@H]3[C@H](O)[C@@H](O)[C@@H](O[C@H]4[C@H](O)[C@@H](O)[C@@H](O[C@H]5[C@H](O)[C@@H](O)[C@@H](O[C@H]6[C@H](O)[C@@H](O)[C@@H](O[C@H]7[C@H](O)[C@@H](O)[C@@H](O[C@H]8[C@H](O)[C@@H](O)[C@@H](O[C@H]9[C@H](O)[C@@H](O)[C@@H](O[C@H]1[C@H](O)[C@H]2O)O[C@@H]9CO)O[C@@H]8CO)O[C@@H]7CO)O[C@@H]6CO)O[C@@H]5CO)O[C@@H]4CO)O[C@@H]3CO [γCD, γ-cyclodextrin] | – | 47 | 256 | – |
